{
  "source": "paper PMC4115637",
  "about": "(Pharmacology Research & Perspectives, 2014)",
  "format_in_all_cases": "cell-based",
  "key": {"human TRPV3": {"target": "T1, human TRPV3 (Homo sapiens, UniProt Q8NET8)", "T1 sequence (Q8NET8 1-790)": "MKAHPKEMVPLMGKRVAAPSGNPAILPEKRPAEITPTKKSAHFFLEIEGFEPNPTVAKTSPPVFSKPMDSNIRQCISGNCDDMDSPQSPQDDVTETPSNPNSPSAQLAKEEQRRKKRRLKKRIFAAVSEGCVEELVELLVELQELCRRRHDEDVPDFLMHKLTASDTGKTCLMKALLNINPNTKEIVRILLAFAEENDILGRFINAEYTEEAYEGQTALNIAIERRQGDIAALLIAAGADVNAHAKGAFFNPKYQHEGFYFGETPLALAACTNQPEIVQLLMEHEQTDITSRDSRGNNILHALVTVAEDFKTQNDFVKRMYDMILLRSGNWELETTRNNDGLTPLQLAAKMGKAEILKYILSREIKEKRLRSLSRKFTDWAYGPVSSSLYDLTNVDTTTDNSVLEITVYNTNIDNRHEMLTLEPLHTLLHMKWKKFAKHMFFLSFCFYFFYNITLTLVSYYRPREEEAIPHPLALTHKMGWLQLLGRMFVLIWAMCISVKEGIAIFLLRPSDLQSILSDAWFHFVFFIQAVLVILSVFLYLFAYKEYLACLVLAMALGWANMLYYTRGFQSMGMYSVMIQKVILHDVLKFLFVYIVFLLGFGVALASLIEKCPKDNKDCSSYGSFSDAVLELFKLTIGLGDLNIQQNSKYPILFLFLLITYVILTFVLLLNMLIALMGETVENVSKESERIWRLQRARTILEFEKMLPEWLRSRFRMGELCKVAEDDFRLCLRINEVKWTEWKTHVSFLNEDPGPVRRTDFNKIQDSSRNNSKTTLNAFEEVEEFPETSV", "test": "Calcium flux in TRPV3 overexpressing HEK-293 cells", "conditions": "HEK-293 cells overexpressing TRPV3"}, "human TRPV2": {"target": "T2, human TRPV2 (Homo sapiens, UniProt Q9Y5S1)", "T2 sequence (Q9Y5S1 1-764)": "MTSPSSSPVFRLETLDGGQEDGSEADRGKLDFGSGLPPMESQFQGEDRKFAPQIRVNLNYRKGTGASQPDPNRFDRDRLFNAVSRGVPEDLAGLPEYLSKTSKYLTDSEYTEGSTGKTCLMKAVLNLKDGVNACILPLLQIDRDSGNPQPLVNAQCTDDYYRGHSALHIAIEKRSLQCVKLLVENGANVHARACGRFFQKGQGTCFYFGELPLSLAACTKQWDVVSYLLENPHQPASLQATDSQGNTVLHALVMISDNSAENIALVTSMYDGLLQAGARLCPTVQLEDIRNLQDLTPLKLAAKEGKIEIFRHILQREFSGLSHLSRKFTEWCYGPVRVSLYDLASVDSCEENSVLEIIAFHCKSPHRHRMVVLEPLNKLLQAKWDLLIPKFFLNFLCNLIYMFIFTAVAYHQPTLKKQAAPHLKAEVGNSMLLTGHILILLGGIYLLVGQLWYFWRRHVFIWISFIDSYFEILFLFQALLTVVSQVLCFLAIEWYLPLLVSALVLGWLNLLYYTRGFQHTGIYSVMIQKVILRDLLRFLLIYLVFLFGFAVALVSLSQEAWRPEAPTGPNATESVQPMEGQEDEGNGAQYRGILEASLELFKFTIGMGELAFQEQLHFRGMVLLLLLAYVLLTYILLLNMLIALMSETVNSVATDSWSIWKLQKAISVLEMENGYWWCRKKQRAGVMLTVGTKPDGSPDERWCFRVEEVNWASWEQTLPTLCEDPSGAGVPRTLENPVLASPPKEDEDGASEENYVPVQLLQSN", "test": "Calcium flux in HEK-293 cells overexpressing TRPV2", "conditions": "concentrations up to 1 mmol/L"}, "TRPV3-H426N": {"target": "T3, TRPV3-H426N (Homo sapiens, UniProt Q8NET8, H426N)", "T3 sequence (Q8NET8 1-790 H426N)": "T1 sequence (Q8NET8 1-790) with H426N", "test": "Calcium flux in HEK-293 cells transiently transfected with TRPV3-H426N"}},
  "note": "Where a chain is given by its changes, count along the chain named.",
  "data": [
    {"smiles": "CCN(CC)CCOC(=O)C(c1ccccc1)C1CCCCC1", "note": "(stereo not shown) [drofenine]", "values": [
      {"measurement": "lowest concentration with detectable change in TRPV3 activity", "setting": "human TRPV3", "value": "~30", "unit": "µmol/L"},
      {"measurement": "activation of TRPV2", "setting": "human TRPV2", "value": "not observed"},
      {"measurement": "calcium flux in TRPV3-H426N relative to TRPV3-WT", "setting": "TRPV3-H426N; agonist 100 μmol/L", "value": "reduced activation relative to TRPV3-WT"},
      {"measurement": "calcium flux in TRPV3-H426N relative to TRPV3-WT", "setting": "TRPV3-H426N; agonist 200 μmol/L", "value": "did not reduce TRPV3 activation"}
    ]}
  ]
}
